According to US20260199294A1, “PEPTIDE DRUG CONJUGATES” (Oncopeptides Innovation AB, priority 2022, published 2026):

Tests used:
[1] = system: nuclear DNA (HPRT) prepared from MM.1S cells; test: Direct DNA damage, PCR amplification with HPRT primers; format: biochemical, human; conditions: 0.25 μM compound, 30 minutes at 37° C.
Protocol: Method: DNA was prepared from MM.1S cells by QIAGEN genomic tip 20/G according to protocol described in Furda et al., Methods Mol Biol, 2012. 1 μg of DNA was treated with 0.25 μM compound for 30 minutes at 37° C. DMSO was used as control treatment. 20 ng of the treated DNA was PCR amplified using Phusion Hot Start II High Fidelity PCR Master Mix (Thermo Scientific) and primers directed to either HPRT or primers directed to mitochondrial DNA (mtDNA) was used, generating 10.4 or 8.9 kb fragments, respectively. The PCR reactions were separated on a 1% agarose gel and visualized by ChemiDoc™ MP Imaging System (BioRad). Example compounds 1, 2 and 38 were investigated, as were compounds 18 and 20, which are metabolites of compound 1. They were compared with bendamustine, melphalan and DMSO control. The results for compounds 1, 2, 18 and 20 with the HPRT primers are shown in FIG. 4(A); the results with the mtDNA primers are shown in FIG. 4(B).

MM.1S cells [2] = test: DNA fragmentation, APO-BrdU TUNEL assay by FACS; format: cell-based, human
Protocol: Method: 1×10^6 MM.1S cells (CRL-2974, ATCC) were treated with Example compound 1 or Bendamustine at 0.006, 0.06, 0.6 or 6 μM for 24 h. After incubation, the cells were washed with PBS (10010-015, Gibco), fixed in Flow Cytometry Fixation Buffer (FC004, R&D Systems) for 10 min and stored in 70% ethanol at −20° C. overnight. The deoxythymidine analog (BrdUTP) was present in the experiment and served to label the DNA break sites. Next day, the cells were washed and stained using an APO-BrdU™ TUNEL Assay Kit, according to the manufacturer's protocol (A23210, Invitrogen), followed by the analysis using BD FACSCanto™ II. The percentage ofTUNEL positive cells indicates the percentage of cells with fragmented DNA.

[3] = system: BJ Fibroblasts (normal cells); test: In vitro cytotoxicity (CellTiter-Glo, 72 h) in BJ fibroblasts; format: cell-based, human
Protocol: All cells were cultivated in RPMI medium 1640 (IX). All media was supplemented with […] penicillin/streptomycin, 10% heat inactivated FBS, 0.1 mM Sodium Pyruvate, 1×MEM NEAA (ThermoFisher) and 1 mM HEPES. The DERL-2 cells had higher FBS (20%) and 40 ng/mL IL-2 was added. hPBMCs were thawed and allowed to acclimatise overnight and then stimulated with 10 µg/mL PHA-M and 40 ng/mL IL-2 for 4 hours before being exposed to test compounds. All cells, except for hPBMCs, were grown to reach log phase before being exposed to the test compounds.
Test compounds were dissolved in 100% DMSO and added to a 384 assay plate. Additional DMSO was added to maintain the same final DMSO concentration (0.2%) in all wells. 25 μL cell suspension with a concentration of 100000 cells/mL was added to each well. The cells were cultured in a CO2 incubator at 37° C. for 72 h. Plates were equilibrated to room temperature for 30 minutes before adding 20 μL CellTiter-Glo® 2.0 (Promega) reagent to all wells. The plate was then allowed to stabilize for 20 minutes before recording the luminescence (Em filter 700 nm) in an Envision plate reader.

[4] = Stability of Example compound 1 in solution with various excipients (HPLC); format: physicochemical; conditions: 0.4 mg/mL
Protocol: Ethyl (2S)-2-[[(2S)-2-amino-4-[5-[bis(2-chloroethyl)amino]-1-methyl-benzimidazol-2-yl]butanoyl]amino]-4-methyl-pentanoate (Example compound 1; 19.2 mg, 16.7 mg free base) was dissolved in dimethylacetamide (419 μL) to give a 40 mg/mL stock solution.
Solutions of 0.4 mg/mL of Example compound 1 were prepared by diluting the stock solution in dimethylacetamide (40 mg/mL, 10 μL) with different solutions (990 μL) according to the Table 5 and the stability after 4 h at room temperature was analyzed by HPLC (Analytical HPLC was carried out on an Agilent Series 1100 system using a Kinetex XB C18 (2.6 μm, 3.0×50 mm) column with 0.1% TFA in H2O/CH3CN as mobile phase (acid conditions) (flow 1 mL/min). The excipients were reported in weight ratio excipient:Example compound 1 (free base).

MM.1S cells [5] = test: Cellular retention/efflux: intracellular and extracellular concentrations by LC-MS/MS; format: in vitro ADME, human; conditions: MM.1S cells
Protocol: Methods: MM.1S cells at 2×10^6 cells/mL were seeded at 250 μL per well in a 96-well plate. Cells were incubated in the presence of a test compound for 5, 15, and 60 min before pelleting cells by centrifugation at +4° C. for 5 min. Cell media was immediately harvested to a second plate and stored at −80° C. until further analysis. Pelleted cells were washed once with ice cold PBS before storage at −80° C. until further analysis.
Cells were lysed and protein in the media were precipitated using acetonitrile dimethylformamide, 9:1 containing internal standard. Samples were centrifuged and the supernatant was analyzed with LC-MS/MS (ACQUITY UPLC-Xevo TQ-S micro) to determine compound concentration.
Example compound 1, bendamustine and melphalan were used as test compounds.
Method: Method described in Biological example 3.
Example compounds 1, 2, 3, 4, 6, 7 and 10 were investigated. Intracellular metabolites are formed from all compounds tested. The compound used for cell treatment was metabolised to the ester-hydrolysed compound (here called Metabolite A) and to the amide-hydrolysed compound (called Metabolite B). The example compound structures and the structures of the two metabolites for the respective compounds were as shown in Table 4. The Metabolites B formed under the conditions tested were compounds with structure as Examples 17 and 18: […]

## CCOC(=O)[C@H](CC(C)C)NC(=O)[C@@H](N)CCc1nc2cc(N(CCCl)CCCl)ccc2n1C [Example compound 1, Ethyl (2S)-2-[[(2S)-2-amino-4-[5-[bis(2-chloroethyl)amino]-1-methyl-benzimidazol-2-yl]butanoyl]amino]-4-methyl-pentanoate]
[1]
  DNA damage on nuclear DNA (HPRT 10.4 kb PCR band): strong DNA damaging effect
MM.1S cells [2]; 0.6 μM for 24 h
  cells with DNA breaks: > 90%
MM.1S cells [2]; 0.006, 0.06, 0.6 or 6 μM for 24 h
  dose response effect on DNA damage (TUNEL positive cells): induced DNA damage in a dose-dependent manner
[3]
  IC50: 1070 nM
[4]; 2-Hydroxypropyl-β-cyclodextrin (Kleptose), Ultrapure water (MilliQ), weight ratio excipient:Ex 1 5
  Ex 1 remaining after 4 h at room temp (%): 78%
[4]; 2-Hydroxypropyl-β-cyclodextrin (Kleptose), Ultrapure water (MilliQ), weight ratio excipient:Ex 1 10
  Ex 1 remaining after 4 h at room temp (%): 84%
[4]; 2-Hydroxypropyl-β-cyclodextrin (Kleptose), Ultrapure water (MilliQ), weight ratio excipient:Ex 1 20
  Ex 1 remaining after 4 h at room temp (%): 85%
[4]; 2-Hydroxypropyl-γ-cyclodextrin, Ultrapure water (MilliQ), weight ratio excipient:Ex 1 5
  Ex 1 remaining after 4 h at room temp (%): 82%
[4]; 2-Hydroxypropyl-γ-cyclodextrin, Ultrapure water (MilliQ), weight ratio excipient:Ex 1 10
  Ex 1 remaining after 4 h at room temp (%): 86%
[4]; 2-Hydroxypropyl-γ-cyclodextrin, Ultrapure water (MilliQ), weight ratio excipient:Ex 1 20
  Ex 1 remaining after 4 h at room temp (%): 79%
[4]; Betadex Sulfobutyl Ether Sodium (Dexolve), Ultrapure water (MilliQ), weight ratio excipient:Ex 1 5
  Ex 1 remaining after 4 h at room temp (%): 99%
[4]; Betadex Sulfobutyl Ether Sodium (Dexolve), Ultrapure water (MilliQ), weight ratio excipient:Ex 1 10
  Ex 1 remaining after 4 h at room temp (%): 101%
[4]; Betadex Sulfobutyl Ether Sodium (Dexolve), Ultrapure water (MilliQ), weight ratio excipient:Ex 1 20
  Ex 1 remaining after 4 h at room temp (%): 98%
[4]; excipient None, solvent 0.9% Saline, ratio 0
  Ex 1 remaining after 4 h at room temp (%): 93%
[4]; excipient None, solvent 5% Glucose, ratio 0
  Ex 1 remaining after 4 h at room temp (%): 80%
[4]; excipient None, solvent DPBS, ratio 0
  Ex 1 remaining after 4 h at room temp (%): 10%
[4]; excipient None, solvent Dimethylacetamide, ratio 0
  Ex 1 remaining after 4 h at room temp (%): 103%
[4]; excipient None, solvent Ultrapure water (MilliQ), ratio 0
  Ex 1 remaining after 4 h at room temp (%): 85%
[4]; γ-Cyclodextrin, Ultrapure water (MilliQ), weight ratio excipient:Ex 1 5
  Ex 1 remaining after 4 h at room temp (%): 78%
[4]; γ-Cyclodextrin, Ultrapure water (MilliQ), weight ratio excipient:Ex 1 10
  Ex 1 remaining after 4 h at room temp (%): 82%
[4]; γ-Cyclodextrin, Ultrapure water (MilliQ), weight ratio excipient:Ex 1 20
  Ex 1 remaining after 4 h at room temp (%): 86%
MM.1S cells [5]
  intracellular hydrolysis / metabolite formation: hydrolysis of Example compound 1 took place inside the cells
